Article PMC8694143 (Microbiology Spectrum, 2021)
“Also recorded” adds a separate entry of the source. No end group written: not given here.

Experiments:
SspA = SspA protease resuspended at 2 mg/mL in 100 mM HEPES (pH 7.8); details: 37°C, up to 5 h
M. luteus ATCC 4698 = assay: MIC determination in broth; assay type: cell-based, Micrococcus luteus; details: cation-adjusted MH broth, ~10^5 CFU/mL, 30°C, 48 h
Description: (§1) M. luteus ATCC 4698, S. aureus ATCC 29213, a panel of 7 MRSA (ATCC MP-2) strains, which includes ATCC BAA-41, BAA-42, BAA-44, BAA-1683, BAA-2094, BAA-2313, and 33592, and a series of additional bacterial isolates from human and veterinary cases were used in this study (Table S6). Bacterial strains were routinely grown in lysogeny broth (LB: 10 g/L tryptone, 5 g/L yeast extract, 10 g/L NaCl) at 30°C (M. luteus) or 37°C (Staphylococcus spp.) prior to use in specific experiments described below.
(§2) The MICs were measured for bioactive peptides identified from the initial screen. Cation-adjusted Mueller-Hinton (MH) broth was used as the growth medium for MIC determination experiments. Bacterial cultures were diluted to an OD of 5 × 10^−4 (∼10^5 CFU/mL) in 200 μL MH broth mixed with peptides in a 2-fold dilution series arrayed in 96-well plates. Plates were incubated without shaking at 30 or 37°C depending on the organism.

MRSA ATCC 33592 = assay: MIC determination in broth; assay type: cell-based, Staphylococcus aureus; details: Table S5; STIP3 variants, highest conc. tested 100 μg/mL; cation-adjusted MH broth, ~10^5 CFU/mL, 2-fold dilution series, 37°C, 16 h
Description: as §1, §2

MRSA ATCC BAA-1683 = assay: MIC determination in broth; assay type: cell-based, Staphylococcus aureus; details: STIP3 variants, highest conc. tested 100 μg/mL; cation-adjusted MH broth, ~10^5 CFU/mL, 2-fold dilution series, 37°C, 16 h
Description: as §1, §2

MRSA ATCC BAA-2094 = assay: MIC determination in broth; assay type: cell-based, Staphylococcus aureus; details: STIP3 variants, highest conc. tested 100 μg/mL; cation-adjusted MH broth, ~10^5 CFU/mL, 2-fold dilution series, 37°C, 16 h
Description: as §1, §2

MRSA ATCC BAA-2313 = assay: MIC determination in broth; assay type: cell-based, Staphylococcus aureus; details: STIP3 variants, highest conc. tested 100 μg/mL; cation-adjusted MH broth, ~10^5 CFU/mL, 2-fold dilution series, 37°C, 16 h
Description: as §1, §2

MRSA ATCC BAA-41 = assay: MIC determination in broth; assay type: cell-based, Staphylococcus aureus; details: STIP3 variants, highest conc. tested 100 μg/mL; cation-adjusted MH broth, ~10^5 CFU/mL, 2-fold dilution series, 37°C, 16 h
Description: as §1, §2

MRSA ATCC BAA-42 = assay: MIC determination in broth; assay type: cell-based, Staphylococcus aureus; details: STIP3 variants, highest conc. tested 100 μg/mL; cation-adjusted MH broth, ~10^5 CFU/mL, 2-fold dilution series, 37°C, 16 h
Description: as §1, §2

MRSA ATCC BAA-44 = assay: MIC determination in broth; assay type: cell-based, Staphylococcus aureus; details: STIP3 variants, highest conc. tested 100 μg/mL; cation-adjusted MH broth, ~10^5 CFU/mL, 2-fold dilution series, 37°C, 16 h
Description: as §1, §2

S. aureus ATCC 29213 = assay: MIC determination in broth; assay type: cell-based, Staphylococcus aureus; details: STIP3 variants, highest conc. tested 100 μg/mL; cation-adjusted MH broth, ~10^5 CFU/mL, 2-fold dilution series, 37°C, 16 h
Description: as §1, §2

Substance	fragment found (SspA)	MIC, M. luteus (M. luteus ATCC 4698)	MIC, S. aureus ATCC 33592 (SCCmec III) (MRSA ATCC 33592)	MIC, S. aureus ATCC BAA 1683 (SCCmec IV) (MRSA ATCC BAA-1683)	MIC, S. aureus ATCC BAA 2094 (SCCmec V) (MRSA ATCC BAA-2094)	MIC, S. aureus ATCC BAA 2313 (SCCmec XI) (MRSA ATCC BAA-2313)	MIC, S. aureus ATCC BAA 41 (SCCmec II) (MRSA ATCC BAA-41)	MIC, S. aureus ATCC BAA 42 (SCCmec VI) (MRSA ATCC BAA-42)	MIC, S. aureus ATCC BAA 44 (SCCmec I) (MRSA ATCC BAA-44)	MIC, S. aureus ATCC 29213 (S. aureus ATCC 29213)
MTKDIVETVGGLVKWILDTVKKFA	TVGGLVKWILDTVKKFA; also recorded: TVGGLVKWILD; also recorded: TVKKFA; also recorded: MTKDIVE									
TAGGLVKWILDTVKKFA [V2A]		50 µg/mL								
TVGGAVKWILDTVKKFA [L5A]		100 µg/mL								
TVGGLAKWILDTVKKFA [V6A]		50 µg/mL								
TVGGLVKAILDTVKKFA [W8A]		100 µg/mL								
TVKALVKWILKTVAKFW-NH2 [STIP3-31, rationally designed STIP3-1 variant, C-terminal amide]			25 µg/mL	25 µg/mL	25 µg/mL	25 µg/mL	25 µg/mL	50 µg/mL	25 µg/mL	25 µg/mL
TVKFLVKWILKWVAKFA [STIP3-25, rationally designed STIP3-1 variant]			> (The > symbol indicates that no inhibition was observed at 100 μg/mL for the STIP3 variants)	> (The > symbol indicates that no inhibition was observed at 100 μg/mL for the STIP3 variants)	> (The > symbol indicates that no inhibition was observed at 100 μg/mL for the STIP3 variants)	> (The > symbol indicates that no inhibition was observed at 100 μg/mL for the STIP3 variants)	> (The > symbol indicates that no inhibition was observed at 100 μg/mL for the STIP3 variants)	> (The > symbol indicates that no inhibition was observed at 100 μg/mL for the STIP3 variants)	> (The > symbol indicates that no inhibition was observed at 100 μg/mL for the STIP3 variants)	> (The > symbol indicates that no inhibition was observed at 100 μg/mL for the STIP3 variants)
TVKGLVKWILATVKKFA [STIP3-16, rationally designed STIP3-1 variant]			50 µg/mL	> (The > symbol indicates that no inhibition was observed at 100 μg/mL for the STIP3 variants)	100 µg/mL	100 µg/mL	50 µg/mL	50 µg/mL	100 µg/mL	100 µg/mL
